This note sets out measurements from US10414759B2, “Phenylthiazoles and uses thereof” (Purdue Research Foundation, priority 2017, dated 2019).

The subject of one data set is MRSA (USA300). In words: Time-kill assay. Type of data set: cell-based, Staphylococcus aureus. The note with it: MRSA US300, 3.0×MIC. As to the method: Aliquots (100 μL) were taken from each sample after 2, 4, 6, 8, 10, 12, and 24 hours, serially diluted in phosphate-buffered saline, and transferred to Trypticase soy agar (TSA) (Becton, Dickinson and Company, Sparks, Md., USA) plates. Plates were incubated at 37° C. for at least 16 hours before counting viable CFU/mL to determine the time required to reduce the bacterial cell count by 3-log10.

The next data set deals with VRSA10. Description: MIC/MBC clinical isolate panel (Table 3). Type of data set: cell-based, S. aureus. As to conditions: Staphylococcus aureus, Table 3, VRSA10. On the procedure: MRSA clinical isolates, and vancomycin-resistant Staphylococcus aureus (VRSA) strain were obtained through the Network of Antimicrobial Resistance in Staphylococcus aureus (NARSA) program. In addition, vancomycin-resistant Enterococcus faecium (VRE) strain was obtained from the ATCC. Bacteria were cultured in cation-adjusted Mueller Hinton broth in a 96-well plate. Compounds, using triplicate samples, were added to the plate and serially diluted. […] Plates were visually inspected and the MIC was categorized as the concentration at which no visible growth of bacteria was observed. The average of triplicate MIC determinations is reported.
The minimum inhibitory concentration (MIC) of tested compounds and control antibiotics were determined using the broth microdilution method in accordance with the recommendations contained in the Clinical and Laboratory Standards Institute guidelines, against methicillin-sensitive (ATCC 6538 and NRS107), methicillin-resistant (MRSA), and vancomycin-resistant (VRSA) Staphylococcus aureus, Staphylococcus epidermidis, Enterococcus faecalis, E. faecium, Listeria monocytogenes, and Streptococcus pneumoniae clinical isolates. A bacterial solution equivalent to 0.5 McFarland standard was prepared and diluted in cation-adjusted Mueller-Hinton broth (CAMHB) to achieve a bacterial concentration of about 5×10^5 CFU/mL and seeded in 96-well plates. Enterococcus faecium was diluted in brain heart infusion broth. Enterococcus faecalis, Streptococcus pneumonia and Listeria monocytogenes were diluted in tryptone soya broth (TSB). Compounds and control drugs were added in the first row of 96-well plates and serially diluted (to achieve a concentration gradient ranging from 128 to 1 μg/mL). Plates were then incubated aerobically at 37° C. for at least 18 hours. The minimum bactericidal concentration (MBC) of the active compounds was tested by plating 5 μL from wells with no growth onto Tryptic soy agar (TSA) plates.

Data set [1] relates to human keratinocytes (HaCaT). Description: In vitro cytotoxicity against HaCaT (MTS). Type of data set: cell-based. The note with it: 2 h incubation. As to the method:
Compound 17 was assayed at concentrations of 8, 16, 32, 64, 128, and 256 μg/mL against an immortal keratinocyte cell line (HaCaT) in order to determine the potential toxic effect against mammalian cells in vitro. Cells were cultured in Dulbeco's modified Eagle's medium (Sigma-Aldrich, St. Louis, Mo., USA) with 10% fetal bovine serum (USA Scientific, Inc.) at 37° C. with 5% CO2. Controls received DMSO alone at a concentration equal to that in drug-treated cell samples. The cells were incubated with the compounds in a 96-well plate at 37° C. and 5.0% CO2 for 2 h prior to addition of the assay reagent MTS 3-(4,5-dimethylthiazol-2-yl)-5-(3-carboxymethoxyphenyl)-2-(4-sulfophenyl)-2H-tetrazolium) (Promega, Madison, Wis., USA). Corrected absorbance readings (actual absorbance readings for each treatment […]) were taken using a kinetic ELISA microplate reader (Molecular Devices, Sunnyvale, Calif., USA). The quantity of viable cells after treatment with each compound is expressed as a percentage of the control, DMSO.

Data set [2] in a line: PBS solubility screen (turbidometric). Type of data set: physicochemical. The note with it: aqueous buffer, kinetic from dmso stock. As to the method:
The solutions were diluted 100-fold into PBS in a 96-well plate and mixed. The absorbance of the PBS-containing plate was measured prior to addition of the test agents to determine the background absorbance. After 2 h, the presence of precipitate was detected by turbidity (absorbance at 540 nm). […] The solubility limit is reported as the highest experimental concentration with no evidence of turbidity.

≈ marks a conversion by molar mass, not a printed value.

A word on the MBC: it is the smallest concentration meeting the test's criterion for killing. For orientation: MIC means the smallest concentration in the dilution series that meets the test's criterion for growth inhibition. Broadly, the solubility is how much of the substance goes into solution per volume. A high value points to much dissolved substance. For `CCCCc1ccc(-c2nc(C)c(-c3ccnc(NN)n3)s2)cc1` [Compound 17, 2-(4-Butylphenyl)-5-(2-hydrazinopyrimidin-4-yl)-4-methylthiazole], the “time required to reduce the MRSA inoculum to zero colony forming units” value in the data set on MRSA (USA300) is no more than 2 h. Also, the MBC in the data set on VRSA10 (read-out: MBC) was 2 µg/mL (≈ 5.89 µM). Further, in the data set on VRSA10 (read-out: MIC), the MIC was 1 µg/mL (≈ 2.95 µM). In data set [1], the “nontoxic up to a concentration of” value stood at 64 µg/mL. The solubility at 2 h in data set [2] came out at 55 µM (≈ 18.7 µg/mL).
